In patent publication US12274703B2, “Compositions and methods of treatment for neurological disorders comprising a dementia” (Gliapharm SA, priority 2017, dated 2025):
Structures can show the parent of a compound that is named as a salt.

System: primary astrocytes
Test: High throughput screening for lactate secretion: acidification of extracellular medium (SNARF5)
Type: cell-based, mouse
Conditions: Mus musculus, Astrocyte, 1.5 h; Appendix I; primary screening, 10 uM, 90 min; relative to positive control; read-out: Score
Procedure: Primary cultures of cerebrocortical astrocytes were obtained from 1-2-day-old OF1 mouse pups (Charles River Laboratories). Briefly, cortices were isolated and minced in small pieces under a dissecting microscope. The cells were incubated for 30 min at 37° C. in a solution containing 20 U/ml of papain enzyme (Worthington Biochemical), L-cysteine 1 mM (Sigma), and 10 kU/ml DNase I (Worthington Biochemical) for an enzymatic dissociation. Papain activity was stopped by the addition of fetal calf serum (FCS) to the solution, and a single-cell suspension was then obtained by mechanical dissociation, which consisted in cells trituration in a DMEM (D7777, Sigma-Aldrich) medium (supplemented with 44 mm NaHCO3, and 10 ml/L antibiotic/antimycotic solution) containing 10% FCS. The cells were seeded at an average density of 6×10^4 cells/cm^2 in poly-D-lysine-coated 96, 12 or 6-well culture plates, depending on their use, and incubated at 37° C. in a humidified atmosphere containing 5% CO2/95% air. Culture medium was renewed twice per week. Cells were stimulated and harvested between DIV14 and DIV17, when confluence and cell growth were optimal.
Secretion of lactate in a high-throughput screening (HTS) fashion was measured indirectly through the acidification of extracellular medium. To this end, primary astrocytes grown in 96-well plates for 17 days were stimulated with the compounds as listed herein.
After washing the cells twice with stimulation medium (DMEM (D5030, Sigma), 3 mM NaHCO3 and 5 mM Glucose) at 37° C., cells were stimulated with the compounds at a final concentration of 10 uM (1% DMSO final) in 50 ul per well of stimulation medium supplemented with 10 uM of the extracellular pH sensor SNARF-5F %-(AND-6)-CAR (Life Technologies Corporation). Each compound was tested in two different plates for duplicates.
After 90 min stimulation, fluorescence was read at exc. (excitation) 480 nm/emm. (emission) 580 nm and at exc 480 nm/emm. 630 nm. The ratio of fluorescence between 630 nm and 580 emission values, which represents extracellular pH, was calculated.
In each plate, 8 wells were used for negative controls (DMSO) and 8 wells were used for positive controls (CCCP 2 uM in DMSO). Z prime values were calculated for each of the plates tested and values <0 were discarded.
The average and SD of compounds' values tested in duplicates were calculated, and compound was noted as HIT when the difference between compound's average and negative control's average was greater than three times the sum of compound's SD and negative controls' SD. Only scores greater than 40% were considered as lead hits for the CDC54K library; for the remaining libraries, all hits were considered. Scores are calculated as the % of activity compared to the positive control in each plate (which is 100%).
Primary screening hits were cherry picked on new plates and confirmed for SNARF5 effect, after having discarded those compounds that are fluorescent (exc. 480 nm/emm. 580 nm or 630 nm) before stimulation. Extracellular medium was next analyzed for extracellular lactate quantification for secondary screening.
Identification of lactate-enhancing drugs with high throughput screening (HTS) experiments on astrocytes primary cultures using extracellular pH dye (SNARF5F 5-(and 6)-carboxylic acid) for 90 min. The procedure is described in Material and Methods (2. Cell culture, 2.1. HTS for lactate secretion and 2.2. Extracellular lactate quantification).
The procedure was performed as follows: • Primary screening: acidification of the extracellular medium • Primary screening confirmation: acidification of the extracellular medium, removal of compounds with fluorescent activity at exc. 480 nm/emm. 580 nm or 630 nm. • Secondary screening: dosage of extracellular lactate

| SMILES | Emax at 10 µM |
| --- | --- |
| O=S(=O)(c1ccc(F)cc1)N1CCSC1c1ccccc1Cl (centres unmarked) [4052-4279] | 15.6% |
| COc1ccc(Cl)cc1S(=O)(=O)NCc1ccncc1 [F0376-0203] | 20.3% |
| O=C(C[n+]1cc(-c2ccccc2)n2c1CCC2)c1ccc(Br)cc1 [T0502-5560] | 102% |
| Cc1cccc([N+]2=C3CCCCCN3C(O)(c3ccc([N+](=O)[O-])cc3)C2)c1 (centres unmarked) [K404-0914] | 0% |
| CC(=O)N1CCCc2cc(S(=O)(=O)NC(c3ccccc3)C(C)C)ccc21 (centres unmarked) [T6067366] | 0% |
| CC(=O)N1CCc2sc(S(=O)(=O)NCc3ccccc3)cc2C1 [P025-0168] | 14.5% |
| FC(F)(F)c1cccc(CNc2ncnc3sccc23)c1 [T5346988] | 99.6% |
| COc1ccc(C2(O)C[N+](c3cc(C)ccc3C)=C3CCCCCN32)cc1OC (centres unmarked) [K404-0852] | 0% |
| Cc1oc2ncnc(N3CCCC(C(=O)NCc4cccnc4)C3)c2c1C (centres unmarked) [F228-0351] | 59.2% |
| CCOc1ccc(C2(O)C[N+](c3ccccc3C)=C3CCCCN32)cc1 (centres unmarked) [F0524-0511] | 70% |
| O=C(c1cccc(F)c1)N1CCC(Nc2ncnc3c2CCC3)CC1 [T636-1601] | 0% |
| CC(=O)N1CCc2sc(S(=O)(=O)Nc3cc(C)cc(C)c3)cc2C1 [P025-0080] | 33.1% |
| CCNC(=O)C1CCCN(c2ncnc3oc(C)c(C)c23)C1 (centres unmarked) [F228-0534] | 35.4% |
| O=C(Cc1cccc(F)c1)N1CCC(Nc2ncnc3c2CCC3)C1 (centres unmarked) [T636-2360] | 44% |
| CC(=O)N1CCCc2cc(S(=O)(=O)NCc3ccccc3)ccc21 [G855-0210] | 20.6% |
| Clc1ccc(Nc2ncnc3sccc23)cc1 [T5393195] | 36.9% |
| COc1ccc(OC)c([N+]2=C3CCCCCN3C(O)(c3ccc(C)cc3)C2)c1 (centres unmarked) [K404-0855] | 58.5% |
| Cc1cccc([N+]2=C3CCCCCN3C(O)(c3ccc(F)cc3)C2)c1 (centres unmarked) [K404-0910] | 72.6% |
| COc1ccc(OC)c([N+]2=C3CCCCCN3C(O)(c3ccc([N+](=O)[O-])cc3)C2)c1 (centres unmarked) [K404-0863] | 0% |
| O=C(C1CCOC1)N1CCCn2nc(-c3cccc(Cl)c3)cc2C1 (centres unmarked) [P218-0884] | 0% |
| Cc1nc2ccc(NS(=O)(=O)c3ccccc3F)cc2s1 [T5511047] | 67% |
| Cc1cccc([N+]2=C3CCCCN3C(O)(c3ccc(F)cc3)C2)c1C (centres unmarked) [K404-0685] | 67.9% |

| SMILES | Emax at 10 µM |
| --- | --- |
| CCOc1ccc(C2(O)C[N+](c3cc(OC)ccc3OC)=C3CCCCCN32)cc1 (centres unmarked) [K404-0860] | 57.9% |
| O=S(=O)(Nc1ccc(O)c(Cl)c1)c1ccc2ccccc2c1 [T0517-8939] | 76.8% |
| Cc1oc2ncnc(N3CCCC(C(=O)NCc4ccccn4)C3)c2c1C (centres unmarked) [F228-0350] | 95.8% |
| O=S(=O)(NC1CCCC1)c1cc(-c2noc(C3CCC3)n2)cs1 [L287-1221] | 51.6% |
| Cc1ccc(C(=O)N2CCCC(Nc3ncnc4c3CCC4)C2)cn1 (centres unmarked) [T636-2144] | 0% |
| Cn1nccc1C(=O)N1CCC(Nc2ncnc3c2CCC3)C1 (centres unmarked) [T636-2425] | 22% |
| O=C(Cc1n[nH]c(=O)c2ccccc12)Nc1cccc(Br)c1 [T5717474] | 21.7% |
| Cc1cccc(NS(=O)(=O)c2cc(-c3ccnn3C)cs2)c1 [L924-0884] | 65.6% |
| O=S(=O)(NC1CCN(c2ncnc3c2CCC3)C1)c1ccccc1 (centres unmarked) [T636-1250] | 96.4% |
| CCOc1ccc(-c2cc3n(n2)CCCN(C(=O)c2cccnc2)C3)cc1 [T200-0707] | 16.7% |
| CC(=O)c1cccc(NC(=O)C(C)Sc2ncnc3ccsc23)c1 (centres unmarked) [T5627721] | 72.4% |
| COc1ccc(C2(O)C[N+](c3ccccc3C)=C3CCCCN32)cc1 (centres unmarked) [F0524-0507] | 61.2% |
| COc1cccc(-c2cc3n(n2)CCCN(Cc2ccncc2)C3)c1 [T202-0973] | 34.1% |
| Cc1cc(S(=O)(=O)NCc2ccncc2)c(Cl)cc1Cl [T5581430] | 47.2% |
| CN(C)Cc1cccc(CNc2ncnc3sccc23)c1 [T6783542] | 85.7% |
| O=C(c1ccco1)N1CCCn2nc(-c3ccc(C(F)(F)F)cc3)cc2C1 [T200-0370] | 56.2% |
| CC(C)OCCCNc1ncnc2c1CCC2 [T636-0027] | 53.6% |
| OC1(c2ccccc2)C[N+](c2ccc(Cl)cc2)=C2CCCCN21 (centres unmarked) [F0524-0488] | 51.2% |
| Cc1ccc(S(=O)(=O)N2CCSC2c2cccc([N+](=O)[O-])c2)c(C)c1 (centres unmarked) [T5463709] | 24.4% |
| Cc1ccc(S(=O)(=O)N2CCSC2c2ccc([N+](=O)[O-])cc2)c(C)c1 (centres unmarked) [T5464782] | 27.7% |
| Cc1ccc(CNc2ncnc3c2CCC3)o1 [T636-0054] | 55.3% |
| c1ccc(C(Nc2ncnc3sccc23)C2CC2)cc1 (centres unmarked) [T6016487] | 126% |

| SMILES | Emax at 10 µM |
| --- | --- |
| COc1ccccc1S(=O)(=O)Nc1ccc2nc(C)sc2c1 [T5246417] | 24.1% |
| O=C(c1ccc(Cl)s1)N1CCC(Nc2ncnc3c2CCC3)C1 (centres unmarked) [T636-2391] | 93.2% |
| Cc1cccc([N+]2=C3SCCCN3C(O)(c3ccc(OC(F)F)cc3)C2)c1 (centres unmarked) [K404-0400] | 36.3% |
| Cc1cccc(NS(=O)(=O)c2cc(-c3noc(C)n3)cs2)c1 [L287-0220] | 35.2% |
| COc1ccc(C2SCCN2S(=O)(=O)c2ccc(C)c(C)c2)cc1OC (centres unmarked) [F1462-0491] | 27.2% |
| O=C(C[n+]1cc(-c2ccc(Br)cc2)n2c1CCCCC2)c1ccccc1 [T0500-4648] | 109% |
| Cc1cccc([N+]2=C3CCCCN3C(O)(c3ccc(Cl)cc3)C2)c1 (centres unmarked) [K404-0800] | 97.3% |
| COc1ccc(C2SCCN2S(=O)(=O)c2cccc(C)c2)cc1OC (centres unmarked) [T5463658] | 27.2% |
| O=C(C1CC1)N1CCc2sc(S(=O)(=O)Nc3cccc(Cl)c3)cc2C1 [P025-0462] | 38.7% |
| CN1CCC(OCCCNc2ncnc3c2CCC3)CC1 [T636-0181] | 22.8% |
| CC(=O)N1CCCc2cc(S(=O)(=O)NCc3ccc(Cl)cc3)ccc21 [G855-0033] | 34.7% |
| O=C(c1noc2ccc(S(=O)(=O)Nc3cccc(F)c3)cc12)N1CCCC1 [L995-0058] | 42.3% |
| c1ccc(CN2CCC(Nc3ncnc4c3CCC4)CC2)nc1 [T636-1715] | 0% |
| O=C(NCc1ccccc1)NC1CCN(c2ncnc3c2CCC3)C1 (centres unmarked) [T636-1210] | 48.9% |
| O=S(=O)(Nc1ccc2[nH]ncc2c1)c1ccc(Cl)cc1F [T5436375] | 0% |
| CCOc1ccc(C2(O)C[N+](c3ccccc3OC)=C3CCCCN32)cc1 (centres unmarked) [K404-0673] | 93.1% |
| COc1ccccc1Nc1nc(N2CCOCC2)c2ccccc2n1 [F3007-0009] | 19.8% |
| COc1ccccc1[N+]1=C2CCCCN2C(O)(c2ccc(F)cc2)C1 (centres unmarked) [F0524-0338] | 73.6% |
| Cc1ccc(F)cc1NC(=O)Cc1nn(C)c(=O)c2ccccc12 [T6302989] | 40.5% |
| Cc1nc(N2CCCC(C(=O)NCc3cccnc3)C2)c2c(C)c(C)oc2n1 (centres unmarked) [F228-0856] | 18.6% |
| COc1ccccc1[N+]1=C2CCCCCN2C(O)(c2ccccc2)C1 (centres unmarked) [K404-0838] | 103% |

Same assay, conditions: Mus musculus, Astrocyte, 1.5 h; Prestwick hits; 10 uM, 90 min; activity relative to positive control CCCP 2 uM; read-out: Score

| SMILES | Emax at 10 µM |
| --- | --- |
| CCCCC(CC)CNC(=N)NC(=N)NCCCCCCNC(=N)NC(=N)NCC(CC)CCCC (centres unmarked) [Alexidine dihydrochloride] | 38.9% |
| Cc1cc(/C=C/c2ccc3cc(N(C)C)ccc3[n+]2C)c(C)n1-c1ccccc1 [Pyrvinium pamoate] | 99.1% |
| Clc1ccc(COC(Cn2ccnc2)c2ccc(Cl)cc2Cl)c(Cl)c1 (centres unmarked) [Miconazole] | 7.35% |

Same assay, conditions: Mus musculus, Astrocyte, 1.5 h; Prestwick hits; 10 uM, 90 min; relative to positive control CCCP 2 uM; read-out: HTS Score (lactate)

| SMILES | Emax at 10 µM |
| --- | --- |
| CCCCC(CC)CNC(=N)NC(=N)NCCCCCCNC(=N)NC(=N)NCC(CC)CCCC (centres unmarked) [Alexidine dihydrochloride] | 38.9% |
| Cc1cc(/C=C/c2ccc3cc(N(C)C)ccc3[n+]2C)c(C)n1-c1ccccc1 [Pyrvinium pamoate] | 99.1% |
| Clc1ccc(COC(Cn2ccnc2)c2ccc(Cl)cc2Cl)c(Cl)c1 (centres unmarked) [Miconazole] | 7.3% |
